Entries after “also recorded” stand apart in the source; their conditions may differ.
How the values were obtained:
HCoV-OC43 = test: viral load by qRT-PCR of HCoV-OC43 N protein mRNA in BEAS-2B cells; type: cell-based, Human coronavirus OC43; settings: 48 h treatment from 24 h post infection, FIG. 1C
Procedure: (§1) Cell Culture: BEAS-2B cells (an epithelial cell line that was isolated from normal human bronchial epithelium) were purchased from the American Type Culture Collection (ATCC) through Cedarlane Corp., Burlington, Canada. The cells were cultured in bronchial epithelial cell growth medium (Lonza/Clonetics Corporation, Basel, Switzerland) supplemented with 10% fetal bovine serum (FBS). Cells were cultured at 37° C. in a humidified incubator balanced with 5% CO2.
(§2) Compound solution preparation for in vitro experiments: Candidate compounds were dissolved in anhydrous Dimethyl Sulfoxide (DMSO) (available from Sigma Aldrich), filtered by a 0.20 μm PTFE filter and added to culture medium to make a working solution at designated concentrations. Final concentration of DMSO in culture medium was ≤0.1%. Same volume of DMSO was used as control.
(§3) An apoptosis study was conducted (see FIGS. 1A-1C). HCoV-OC43 infection (referred to as “OC43” herein) see Archer, S. L., et al., Redox Biology ([…]) 58:102508) was performed in BEAS-2B cells (an epithelial cell line that was isolated from normal human bronchial epithelium, available from ATCC through Cedarlane Corp., Burlington, Canada). Cells were counted and then seeded in a cell culture plate overnight. The cell culture media was replaced with serum-free media containing 3 focus-forming units (ffu)/cell of OC43 virus. The cells were cultured in this inoculum for 2 hours. Then the inoculum was replaced with complete growth medium and incubated at 33° C. until 72 hours post-infection (the time of the experimental endpoint). Cells were then treated for 48 hours with AIF Inhibitor compounds starting at 24 hours post infection. Concentration of compounds: AIF inhibitor 1, AIF inhibitor 3, and AIF inhibitor 6 were used at a concentration of 10 uM; Drpitor1a, which is a Drp1 inhibitor and is not an AIF inhibitor) was used at a concentration of 1 uM. Cell viability was measured by cell count (see FIG. 1A). Apoptotic cells were measured by TUNEL staining (see FIG. 1B) (see Archer, S. L., et al., Redox Biol. (2022) 58:102508). Cells were dual stained with Click-iT® Plus TUNEL (available from Thermo Fisher, Waltham, MA, USA) and 4′,6-diamidino-2-phenylindole (DAPI) (available from Thermo Fisher, Waltham, MA, USA). Images were captured on a Leica SP8 confocal microscope using a 63×1.4 NA objective and a white light laser at 488 nm. Emission acquisition gating was 510-530 nm (for TUNEL). A 405 nm laser diode was used for DAPI excitation and the emission acquisition gate was set at 420-480 nm. Viral loads were quantified using qRT-PCR (see FIG. 1C). mRNA level of HCoV-OC43 N protein was measured and compared among treatment groups.

[1] = test system: BEAS-2B cells infected with HCoV-OC43; test: apoptosis by TUNEL staining in HCoV-OC43 infected BEAS-2B cells; type: cell-based, human; settings: for apoptosis (TUNEL positive cells): BEAS-2B, 48 h treatment from 24 h post infection, FIG. 1B; for effectiveness in the in vitro screening to confirm biological activity: in vitro screening as described in the patent
Procedure: as §1, §2, §3

[2] = test system: murine hepatitis virus-1 (MHV-1); test: murine model of MHV-1 pneumonia (lung photographs, micro-CT, hemodynamics); type: in vivo; settings: 1 mg/kg QD IP 5 days
Procedure: Five-week-old A/J mice (Jackson Labs, Bar Harbour, Maine) were given an intranasal inoculation of either MHV-1 (5000 PFU/17 μl) or an identical volume of saline as control. AIF inhibitor 6 was administered for 5 days (1 mg/kg, QD, IP) post infection. At day 5 post-infection, mice were anesthetized with a single IP injection of ketamine/xylazine (150 mg/kg and 10 mg/kg, respectively). O2 saturation was measured while mice breathed room air, following which they were intubated and mechanically ventilated, which increased their O2 saturation. Transcutaneous O2 saturation was monitored during the procedure using a MouseSTAT® Jr. rodent pulse oximeter attached to the rear paw (Kent Scientific Corporation, Torrington, CT, USA). Right heart catheterization (RHC) was performed using a 1.2F Scisense pressure-volume catheter (Transonic Systems Inc., Ithaca, NY, USA) via a closed chest approach. Mice were ventilated with normoxic gas (room air, 20.6% O2) for 10 minutes, followed by hypoxic gas for 10 minutes (10% 02 balanced with N2) and then followed by normoxic gas (room air, 20.6% O2) for 10 minutes. This regimen was designed to elicit hypoxic pulmonary vasoconstriction (HPV), a normal physiologic response of the pulmonary arteries to airway hypoxia.
Referring to FIGS. 2A-2B, photographs and micro-CT images are shown from a study probing the effect of AIF Inhibitors on murine lung that had been exposed to MHV-1. Lungs were fixed with 4% formaldehyde (PFA) and perfused with 25% barium sulfate via the trachea and imaged by microCT. The micro-CT images were acquired using a VECTor4CT pre-clinical scanner (MILabs B.V., Utrecht, Netherlands) equipped with a cone beam X-ray CT system. The measurements used an acceleration voltage of 50 kVp and X-ray tube current of 430 μA in the ultra-focus mode, allowing acquisition of 3,600 projections with exposure time 40 ms, resulting in a 25 μm resolution. Tomographic CT images of FIG. 2B were compiled using MILabs reconstruction software. For quantification and segmentation, CT image data was manually processed using PMOD 3.9 software (PMOD Technologies Ltd., Zurich, Switzerland).

[3] = test system: BEAS-2B cells infected with HCoV-OC43; test: cell viability by cell count in HCoV-OC43 infected BEAS-2B cells; type: cell-based, human; settings: 1 uM, 48 h treatment from 24 h post infection, endpoint 72 h, FIG. 1A
Procedure: as §1, §2
An apoptosis study was conducted (see FIGS. 1A-1C). […] Cells were counted and then seeded in a cell culture plate overnight. […] Cell viability was measured by cell count (see FIG. 1A). Apoptotic cells were measured by TUNEL staining (see FIG. 1B) (see Archer, S. L., et al., Redox Biol. (2022) 58:102508). […] Viral loads were quantified using qRT-PCR (see FIG. 1C). mRNA level of HCoV-OC43 N protein was measured and compared among treatment groups.

[4] = MHV-1 infected mice, vs vehicle, FIG. 2A

## CN1C(CC2=NC(C3CCOCC3)CC(=O)N2)=NCc2ccccc21 (stereo not shown) [Compound 1, 2-[(1-methyl-1,4-dihydroquinazolin-2-yl)methyl)-6-(tetrahydro-2H-pyran-4-yl)-5,6-dihydropyrimidin-4 (3H)-one]
HCoV-OC43; HCoV-OC43, 10 uM
  viral load (Relative N expression, Nucleocapsid mRNA): reduced viral load
[1]; HCoV-OC43, 10 uM
  apoptosis (TUNEL positive cells): reduced
[1]
  effectiveness in the in vitro screening to confirm biological activity: particularly effective

## CCN(CC)C(=O)c1nc2ccccc2cc1C(=O)c1cc(=O)[nH]c2ccccc12 [Compound 3, N,N-diethyl-3-(2-oxo-1,2-dihydroquinoline-4-carbonyl) quinoline-2-carboxamide]
HCoV-OC43; HCoV-OC43, 10 uM
  viral load (Relative N expression, Nucleocapsid mRNA): reduced viral load
[1]; HCoV-OC43, 10 uM
  apoptosis (TUNEL positive cells): reduced
[1]
  effectiveness in the in vitro screening to confirm biological activity: particularly effective

## O=C1c2ccccc2C(=O)N1CCc1c[nH]c2ccc(OCc3ccccc3)cc12 [Compound 6, 2-(2-(5-(benzyloxy)-1H-indol-3-yl)ethyl) isoindoline-1,3-dione]
HCoV-OC43; HCoV-OC43, 10 uM
  viral load (Relative N expression, Nucleocapsid mRNA): lowers the viral titer; also recorded: reduced viral load
[1]; HCoV-OC43, 10 uM
  apoptosis (TUNEL positive cells): reduced
[1]
  effectiveness in the in vitro screening to confirm biological activity: particularly effective
[2]; [4]
  lung edema: reduced lung edema
  structural damage of the lungs: significantly less structural damage
[2]; MHV-1 infected mice, vs vehicle, FIG. 2B
  lung perfusion (micro-CT, barium contrast): increased lung perfusion
[2]; MHV-1 infected mouse, 10% O2 for 10 min, one mouse per group, FIG. 2C
  hypoxic pulmonary vasoconstriction (rise in RVSP with hypoxia): restored hypoxic pulmonary vasoconstriction

## O=C1c2ccncc2C(=O)c2c1[nH]c1ccccc21 [Drpitor1a, reference compound]
HCoV-OC43; HCoV-OC43, 1 uM
  viral load (Relative N expression, Nucleocapsid mRNA): reduced viral load
[1]; HCoV-OC43, 1 uM
  apoptosis (TUNEL positive cells): reduced
[3]
  cell numbers (cell count) after HCoV-OC43 infection: reversed

— patent US20250228853A1, “Apoptosis Inhibitors” (Queen's University at Kingston, priority 2024, published 2025)
